Entries after “also recorded” stand apart in the source; their conditions may differ.
Tests used:
[1] = tested on: blood clotting (citrated sheep blood); assay: Activated clotting time (ACT) in citrated sheep blood (Example 2); conditions: single drug, 0.6 ng/mg
Procedure: The activated clotting time (ACT) evaluation of anticoagulants was performed in calcium citrate sheep blood and recorded employing the Hemochron® Response device.
The ACT measurements were made in citrated sheep blood. 1.9 ml of citrated sheep blood was added to a test tube containing an activator (Hemochron@Celite@ ACT tubes, Lot F8FTE026 from Accriva Diagnostics, Inc.). A target amount of drug solution was then added into the test tube. The test tube was gently swirled so that the blood and drug was well-mixed. 0.1 ml of 0.3M calcium chloride was then added. The tube was gently shaken before being inserted into the Hemochron Response detector. The ACT read out was recorded and reported. The ACT of the control blood in the absence of any drug as first determined to establish a baseline. Then ACT was determined in the presence of different concentrations of the drug as a single component. Selected drug combinations were then tested to evaluate for potential synergy in action between the two drugs.

[2] = tested on: blood clotting (citrated sheep blood); assay: Net activated clotting time (net ACT) in citrated sheep blood (Examples 3-5); design: key: seconds; measured ACT minus blood control ACT (165 s); conditions: single drug, blood control 165 seconds
Procedure: The activated clotting time (ACT) evaluation of anticoagulants was performed in calcium citrate sheep blood and recorded employing the Hemochron® Response device. The ACT measurements were made in citrated sheep blood. 1.9 ml of citrated sheep blood was added to a test tube containing an activator (Hemochron@Celite@ ACT tubes, Lot F8FTE026 from Accriva Diagnostics, Inc.). A target amount of drug solution was then added into the test tube. The test tube was gently swirled so that the blood and drug were well-mixed. 0.1 ml of 0.3M calcium chloride was then added. The tube was gently shaken before being inserted into the Hemochron Response detector. The ACT read out was recorded and reported. The ACT of the control blood in the absence of any drug as first determined to establish a baseline. Here the blood control measured is 165 seconds. Then ACT was determined in the presence of different concentrations of the drug as a single component. In the following study, the net ACT (measured ACT minus blood control ACT) was utilized to visualize the synergistic effect of direct factor Xa inhibitor (Rivaroxaban) and direct factor IIa inhibitor (Argatroban) drug combinations. The figures are presented in ng/mg wherein the density of blood and tissue are approximately the same.
Example 4 is the continuation of example 3, which employed the same method as in example 3. The only difference is that the direct factor Xa inhibitor Edoxaban is used in place of direct factor Xa inhibitor Rivaroxaban.
Example 5 is the continuation of example 3, which employed the same method as in example 3. The only difference is that the direct factor Xa inhibitor Betrixaban is used in place of direct factor Xa inhibitor Rivaroxaban.

[3] = tested on: platelets (Tissue factor generated antiplatelet); conditions: cited from earlier work
[4] = tested on: porcine coronary artery; assay: In vivo porcine coronary stent implantation: fibrin score and late lumen loss (Examples 25-26); conditions: for inhibition of fibrin formation compared to control: Table 10, 7 days and 28 days
Procedure: The drug eluting stent systems containing different anticoagulants prepared as described in Example 11 were evaluated at 3 hours, 6 hours, 1 day, 3 days, 6 days, 7 days, or 28 days following implantation in a porcine coronary artery model.
The porcine model was chosen as this model has been used extensively for stent and angioplasty studies resulting in a large volume of data on the vascular response properties and its correlation to human vascular response (Schwartz et al, Circulation. 2002; 106:1867 1873). The animals were housed and cared for in accordance with the Guide for the Care and Use of Laboratory Animals as established by the National Research Council.
After induction of anesthesia, the left or right femoral artery was accessed using standard techniques and an arterial sheath was introduced and advanced into the artery. Vessel angiography was performed under fluoroscopic guidance, a 7 Fr. guide catheter was inserted through the sheath and advanced to the appropriate location where intracoronary nitroglycerin was administered. An appropriate implantation segment of coronary artery was randomly selected and a 0.014″ guidewire inserted. Quantitative Coronary Angiography (QCA) was performed to document the results. The appropriately size stent was advanced to the deployment site. The balloon was inflated at a steady rate to a pressure sufficient to achieve a balloon to artery ratio of approximately 1.1 to 1.0.
Follow up angiography was performed at the designated timepoint for each of the animals. Late lumen loss (LLL) can be expressed as: […]
The LLL is an indicator of the amount smooth muscle cell (SMC) proliferation or inhibition. It is used to measure efficacy between drugs for SMC proliferation inhibition. The smaller the LLL, the better the efficacy of the drug.
Stented portions of coronary arteries were embedded in methyl methacrylate (MMA), then divided into a target of at least three blocks of approximately similar lengths for histology evaluation. Quantitative histopathological evaluation of stented artery sections was then performed and scored as indicated. For Fibrin formation, scores ranged from 0 to 3, with a score of 0 indicating absent or rare minimal spotting around struts of the stent, a score of 1 indicating the presence of fibrin in small amounts localized only around the struts, a score of 2 indicating the moderately abundant or denser presence of fibrin around and extending beyond the struts, and a score of 3 indicating the presence of abundant and dense fibrin and/or bridging of the fibrin between the struts. The mean score was calculated and reported. The mean of each section was then averaged to provide a mean fibrin score per stent. The smaller the fibrin score, the better efficacy.

[5] = tested on: blood clotting (heparinized sheep blood); assay: Net ACT initiated by platelet activation factor (PAF) and CaCl2 in heparinized sheep blood (Examples 6-11); conditions: single drug, 0.05 ng/mg; PAF & CaCl2; blood control 235 seconds
Procedure: In order to examine the potential synergistic effects between anti-inflammatory agents, direct factor Xa inhibitors, direct factor IIa inhibitors, antiplatelets (P2Y12 inhibitor and glycoprotein IIb/IIIa inhibitor, platelet activation factor and CaCl2 were utilized by measuring ACT. Heparinized sheep blood was used to preserve platelet function.
The activated clotting time (ACT) evaluation initiated by platelet activation factor (PAF) and calcium chloride (CaCl2) was performed in heparinized sheep blood and recorded employing the Hemochron® Response device. […] A target amount of drug solution was then added into the test tube. The test tube was gently swirled so that the blood and drug were well-mixed. […] The tube was gently shaken before being inserted into the Hemochron Response detector. The ACT read out was recorded and reported. The ACT of the control heparinized sheep blood in the absence of any drug as first measured to establish a baseline. […] Then ACT was measured in the presence of different concentrations of the drug measured. Selected drug combinations were then tested to evaluate for potential synergy in action between the drug combination. The net ACT (ACT minus blood control ACT) was utilized to visualize the synergistic effect. […] The figures are presented in ng/mg wherein the density of blood and tissue are approximately the same.

[6] = In vivo drug release from / drug remaining on implanted stents (HPLC); design: species or system porcine; conditions: 7 days, n = 5
Procedure: The percentage and/or amount of each anticoagulant drug for or by each time point indicated were analyzed for each stent from the different devices in the example and the average drug tissue concentration reported.
Tissue concentrations and the amount of drug released from the stents were measured using stents implanted in porcine arteries for the drugs as indicated. The arteries at the designated time point were excised and a length of stented artery spanning from 5 mm proximal to the stented segment to 5 mm distal to the stented segment was cut. The stented artery was cut longitudinally with surgical scissors. The stents were separated from the tissue. The tissue content of each drug was analyzed using liquid chromatography mass spectroscopy (LCMS) and reported as a mean for each of the timepoint indicated. For drug remaining on each stent, each drug was extracted from the stent, measured using HPLC, and reported as a mean for each of the timepoint indicated as drug released or drug remaining on a stent (where drug remaining is equal to 100% minus the percentage of drug released).

Structure (SMILES) | ACT [1] | net ACT ([2]; 0.15 ng/mg) | net ACT ([2]; 0.3 ng/mg) | IC50 [3] [nM] | IC50 for Tissue factor generated antiplatelet [3] [ng/mg] | inhibition of fibrin formation compared to bare metal control stents ([4]; Table 9, day 7) | inhibition of fibrin formation compared to control [4] | inhibition of fibrin formation compared to control ([4]; listed as Rivamomaban) | net ACT [5] [s] | Cumulative Percent Release of drug: Rivaroxaban [6] | Cumulative Percent Release of drug: Rivaroxaban ([6]; listed as Rivamomaban)
COc1ccc(-n2nc(C(N)=O)c3c2C(=O)N(c2ccc(N4CCCCC4=O)cc2)CC3)cc1 [Apixaban] | 522 | – | – | – | – | – | – | – | – | – | –
O=C(NC[C@H]1CN(c2ccc(N3CCOCC3=O)cc2)C(=O)O1)c1ccc(Cl)s1 [Rivaroxaban] | – | 114 | 139 | 312 | 0.136 | effective at inhibiting fibrin formation | effective at inhibiting fibrin formation compared to control at 7 days and at 28 days when it was released at a faster rate and/or at a larger dose; also recorded: not effective at inhibiting fibrin formation compared to control at 28 days when it was released at a slower rate and/or at a smaller dose; also recorded: more effective at inhibiting fibrin formation compared to control at 7 days and at 28 days; also recorded: not effective at inhibiting fibrin formation compared to control at 28 days | more effective at inhibiting fibrin formation compared to control at 7 days and at 28 days | 166 | at least 88.9% | at least 99.7%

Source: US20260315653A1, “ANTICOAGULANT COMPOSITIONS COMPRISING ANTI-PLATELET AND ANTI-INFLAMMATORY DRUGS AND METHODS AND DEVICES FOR THEIR USE” (Elixir Medical Corporation, priority 2023, published 2026)
